Test results: PubChem BioAssay (NCI)
Several values for one entry are separate records, joined by “and”; a condition that tells them apart may be missing. Equal entries are not always repeated.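 Method: 48-hour compound exposure of cells in 96-well plates, five concentrations, linear interpolation of endpoints. GI50: concentration for 50% inhibition of growth. Definition used: TGI = concentration required for complete inhibition of growth.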

What was measured:
Assay in all cases: NCI tumour cell line growth inhibition, 48 h
[1] = test system: K-562 leukemia
[2] = test system: RXF 393 renal
[3] = test system: SN12C renal
[4] = test system: CAKI-1 renal
[5] = test system: SW-620 colon
[6] = test system: HT29 colon
[7] = test system: HOP-62 NSCLC
[8] = test system: NCI-H23 lung
[9] = test system: SK-MEL-5 melanoma
[10] = test system: SF-268 CNS

With Cc1nc(-c2cn3c(n2)-c2ccc(-c4cnn(C(C)(C)C(N)=O)c4)cc2OCC3)n(C(C)C)n1 the GI50 [1] was 8.86 µM, the TGI [1] was over 75.7 µM and the GI50 [2] was 0.537 µM and 0.727 µM. For the same molecule, the TGI [2] was 4.61 µM and > 7.26 µM, the GI50 [3] was 1.54 µM and 1.04 µM and the TGI [3] was over 100 µM. The GI50 [4] was 1 µM and 1.2 µM, the TGI [4] was over 100 µM and the GI50 [5] was 8.08 µM and 3.48 µM. For the same molecule, the TGI [5] was over 100 µM, the GI50 [6] was 0.0225 µM and 0.0401 µM and the TGI [6] was 17.1 µM and > 10 µM. The GI50 [7] was 0.726 µM and 4.51 µM, the TGI [7] was 60.4 µM and > 10 µM and the GI50 [8] was 13.8 µM and > 5.49 µM. For the same molecule, the TGI [8] was over 100 µM, the GI50 [9] was 4.1 µM and 2.79 µM and the TGI [9] was 17.2 µM and > 10 µM. The GI50 [10] was 3.7 µM and 2.29 µM and the TGI [10] was over 100 µM.
With Clc1ccc(-c2c3c(nn2-c2ccccn2)CCc2ccccc2-3)cc1Cl the GI50 [1] was over 100 µM, the TGI [1] was over 100 µM and the GI50 [2] was 94.6 µM. It also gave a TGI [2] of over 100 µM, a GI50 [3] of over 100 µM and a TGI [3] of over 100 µM. The GI50 [4] was over 100 µM, the TGI [4] was over 100 µM and the GI50 [5] was over 100 µM. It also gave a TGI [5] of over 100 µM, a GI50 [6] of 46.3 µM and a TGI [6] of over 100 µM. For the same molecule, the GI50 [7] was 50.2 µM, the TGI [7] was over 100 µM and the GI50 [8] was over 100 µM. The TGI [8] was over 100 µM, the GI50 [9] was over 100 µM and the TGI [9] was over 100 µM. The GI50 [10] was over 100 µM and the TGI [10] was over 100 µM.
CS(=O)(=O)CCc1cccc(C(=O)c2cnn(-c3ccc(F)cc3)c2N)c1 showed a GI50 [1] of over 25 µM, a TGI [1] of over 25 µM and a GI50 [2] of over 25 µM. It also gave a TGI [2] of over 25 µM, a GI50 [3] of over 25 µM and a TGI [3] of over 25 µM. The GI50 [4] was over 25 µM, the TGI [4] was over 25 µM and the GI50 [5] was over 25 µM. For the same molecule, the TGI [5] was over 25 µM, the GI50 [6] was over 25 µM and the TGI [6] was over 25 µM. For the same molecule, the GI50 [7] was over 25 µM, the TGI [7] was over 25 µM and the GI50 [8] was over 25 µM. For the same molecule, the TGI [8] was over 25 µM, the GI50 [9] was over 25 µM and the TGI [9] was over 25 µM. The GI50 [10] was over 25 µM and the TGI [10] was over 25 µM.
With O=C(c1ccccc1)C1OC12C(=O)Nc1c(Cl)cc(Cl)cc12 (stereo not drawn) the TGI [1] was 46.1 µM, the TGI [2] was over 100 µM and the TGI [3] was over 91.2 µM. It also gave a TGI [4] of over 78 µM, a TGI [5] of 35.4 µM and a TGI [6] of over 100 µM. The TGI [7] was over 100 µM, the TGI [8] was over 100 µM and the TGI [9] was over 100 µM. For the same molecule, the TGI [10] was over 100 µM.
In the case of CCC/C(=N\NC(=S)N1CC2CCC(CC2)C1)c1ccccn1, the TGI [1] is reported as 1.23 µM, the GI50 [2] is reported as 0.0356 µM and the TGI [2] is reported as 1.34 µM and 0.518 µM. For the same molecule, the GI50 [3] was 0.161 µM, the TGI [3] was 4.54 µM and 4.73 µM and the GI50 [4] was 1.03 µM. For the same molecule, the TGI [4] was 2.75 µM and 2.69 µM, the TGI [5] was 0.555 µM and 0.221 µM and the GI50 [6] was 0.0244 µM. The TGI [6] was 1.65 µM and 2.51 µM, the GI50 [7] was 1.16 µM and the TGI [7] was 4.92 µM and 2.7 µM. The GI50 [8] was 0.0141 µM, the TGI [8] was 2.77 µM and 0.674 µM and the GI50 [9] was 0.0467 µM. The TGI [9] was 0.757 µM and 0.483 µM, the GI50 [10] was 0.332 µM and the TGI [10] was 8.33 µM and 2.6 µM.
COc1cc(-c2cc(O)c(-c3ccc4ccccc4n3)c(=O)[nH]2)cc(OC)c1OC gave a TGI [1] of over 32.1 µM, a TGI [2] of over 82.8 µM and a TGI [3] of over 100 µM. It also gave a TGI [4] of over 87.9 µM, a TGI [5] of 66.1 µM and a TGI [6] of over 73.1 µM. It also gave a TGI [7] of over 90.4 µM, a TGI [8] of over 95.5 µM and a TGI [9] of 62.6 µM. It also gave a TGI [10] of over 80.5 µM.
Nc1nc2c(ncn2C2C=CC(CO)C2)c(=O)[nH]1 (stereo not drawn) showed a TGI [1] of over 100 µM, a TGI [2] of over 100 µM and a TGI [3] of over 100 µM. For the same molecule, the TGI [4] was over 100 µM, the TGI [5] was over 100 µM and the TGI [6] was over 100 µM. The TGI [7] was over 100 µM, the TGI [8] was over 100 µM and the TGI [9] was over 100 µM. For the same molecule, the TGI [10] was over 100 µM.
